Data from US20230117470A1, “SUBSTITUTED PYRAZOLE COMPOUNDS AS TOLL RECEPTOR INHIBITORS” (BRISTOL-MYERS SQUIBB COMPANY, priority 2019, published 2023).
pIC50: −log10 of the molar value.

What was measured:
Assay type in all cases: cell-based
human TLR8 = target: T1, human TLR8 (Homo sapiens, UniProt Q9NR97); assay: TLR8 inhibition reporter assay (HEK-Blue cells, SEAP reporter, R848 stimulation); conditions: HEK-Blue cells overexpressing human TLR8, SEAP reporter, R848 15.9 μM
T1 construct: host or cells: HEK-Blue cells
T1 sequence (Q9NR97 27-1041): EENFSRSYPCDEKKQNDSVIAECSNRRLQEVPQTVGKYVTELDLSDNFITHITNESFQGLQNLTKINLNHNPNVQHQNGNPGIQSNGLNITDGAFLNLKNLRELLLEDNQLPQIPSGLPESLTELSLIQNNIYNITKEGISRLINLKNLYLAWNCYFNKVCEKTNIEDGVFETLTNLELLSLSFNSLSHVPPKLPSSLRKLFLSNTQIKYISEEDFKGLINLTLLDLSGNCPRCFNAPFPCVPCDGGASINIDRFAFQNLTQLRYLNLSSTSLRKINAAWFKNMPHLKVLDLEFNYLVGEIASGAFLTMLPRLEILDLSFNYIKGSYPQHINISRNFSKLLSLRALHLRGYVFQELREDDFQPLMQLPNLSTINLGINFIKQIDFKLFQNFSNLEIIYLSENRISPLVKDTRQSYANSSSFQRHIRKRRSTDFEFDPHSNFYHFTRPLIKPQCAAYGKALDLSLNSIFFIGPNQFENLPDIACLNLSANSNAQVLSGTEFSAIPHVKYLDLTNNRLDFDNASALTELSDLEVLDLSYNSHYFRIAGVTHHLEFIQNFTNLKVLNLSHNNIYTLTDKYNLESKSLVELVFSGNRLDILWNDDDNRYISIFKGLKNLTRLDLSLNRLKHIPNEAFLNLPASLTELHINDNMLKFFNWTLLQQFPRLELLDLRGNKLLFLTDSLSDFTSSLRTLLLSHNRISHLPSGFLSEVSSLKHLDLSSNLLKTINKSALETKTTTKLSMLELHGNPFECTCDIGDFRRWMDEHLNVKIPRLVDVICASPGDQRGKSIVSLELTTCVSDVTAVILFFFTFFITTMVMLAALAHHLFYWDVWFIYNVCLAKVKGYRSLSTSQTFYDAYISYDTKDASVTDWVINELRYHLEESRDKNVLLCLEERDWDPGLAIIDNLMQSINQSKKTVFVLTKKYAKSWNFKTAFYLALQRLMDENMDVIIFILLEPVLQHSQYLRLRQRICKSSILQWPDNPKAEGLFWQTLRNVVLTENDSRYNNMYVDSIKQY
In short: (§1)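 Ligand levels differed by receptor: TLR7 got gardiquimod at 7.5 μM, TLR8 got R848 at 15.9 μM, and TLR9 got ODN2006 at 5 nM, each added after a 30-min room-temperature compound exposure. Incubation lasted 22 h at 37° C before colorimetric SEAP detection.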

human TLR9 = target: T2, human TLR9 (Homo sapiens, UniProt Q9NR96); assay: TLR9 inhibition reporter assay (HEK-Blue cells, SEAP reporter, ODN2006 stimulation); conditions: HEK-Blue cells overexpressing human TLR9, SEAP reporter, ODN2006 5 nM
T2 construct: host or cells: HEK-Blue cells
T2 sequence (Q9NR96 26-1032): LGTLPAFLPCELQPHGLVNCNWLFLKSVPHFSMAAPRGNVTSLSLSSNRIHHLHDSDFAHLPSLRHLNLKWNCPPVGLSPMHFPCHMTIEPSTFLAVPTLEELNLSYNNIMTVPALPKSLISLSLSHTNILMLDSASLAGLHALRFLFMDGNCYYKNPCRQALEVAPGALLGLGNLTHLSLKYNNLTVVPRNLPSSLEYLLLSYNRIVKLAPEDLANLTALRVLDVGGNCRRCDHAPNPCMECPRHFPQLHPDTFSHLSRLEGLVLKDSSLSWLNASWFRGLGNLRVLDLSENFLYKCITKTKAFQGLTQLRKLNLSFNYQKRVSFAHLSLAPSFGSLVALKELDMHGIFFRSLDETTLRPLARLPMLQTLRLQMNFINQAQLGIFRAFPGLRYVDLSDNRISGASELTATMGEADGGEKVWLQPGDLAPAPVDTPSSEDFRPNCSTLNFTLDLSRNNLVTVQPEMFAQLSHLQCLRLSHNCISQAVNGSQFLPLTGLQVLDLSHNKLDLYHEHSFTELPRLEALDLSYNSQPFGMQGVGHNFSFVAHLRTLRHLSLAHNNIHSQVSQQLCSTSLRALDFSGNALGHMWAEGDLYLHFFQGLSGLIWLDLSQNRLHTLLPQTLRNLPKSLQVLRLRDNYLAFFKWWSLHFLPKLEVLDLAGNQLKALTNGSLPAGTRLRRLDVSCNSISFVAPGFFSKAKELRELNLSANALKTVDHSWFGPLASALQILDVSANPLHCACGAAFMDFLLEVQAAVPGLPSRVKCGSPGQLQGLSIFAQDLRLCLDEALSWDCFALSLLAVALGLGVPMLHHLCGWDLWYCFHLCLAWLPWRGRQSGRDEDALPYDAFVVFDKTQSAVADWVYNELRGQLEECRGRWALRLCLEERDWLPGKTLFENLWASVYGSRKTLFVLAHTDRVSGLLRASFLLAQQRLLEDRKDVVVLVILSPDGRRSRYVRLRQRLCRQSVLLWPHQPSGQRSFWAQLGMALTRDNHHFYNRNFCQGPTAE
In short: as §1

human TLR7 = target: T3, human TLR7 (Homo sapiens, UniProt Q9NYK1); assay: TLR7 inhibition reporter assay (HEK-Blue cells, SEAP reporter, gardiquimod stimulation); conditions: HEK-Blue cells overexpressing human TLR7, SEAP reporter, gardiquimod 7.5 μM
T3 construct: host or cells: HEK-Blue cells
T3 sequence (Q9NYK1 27-1049): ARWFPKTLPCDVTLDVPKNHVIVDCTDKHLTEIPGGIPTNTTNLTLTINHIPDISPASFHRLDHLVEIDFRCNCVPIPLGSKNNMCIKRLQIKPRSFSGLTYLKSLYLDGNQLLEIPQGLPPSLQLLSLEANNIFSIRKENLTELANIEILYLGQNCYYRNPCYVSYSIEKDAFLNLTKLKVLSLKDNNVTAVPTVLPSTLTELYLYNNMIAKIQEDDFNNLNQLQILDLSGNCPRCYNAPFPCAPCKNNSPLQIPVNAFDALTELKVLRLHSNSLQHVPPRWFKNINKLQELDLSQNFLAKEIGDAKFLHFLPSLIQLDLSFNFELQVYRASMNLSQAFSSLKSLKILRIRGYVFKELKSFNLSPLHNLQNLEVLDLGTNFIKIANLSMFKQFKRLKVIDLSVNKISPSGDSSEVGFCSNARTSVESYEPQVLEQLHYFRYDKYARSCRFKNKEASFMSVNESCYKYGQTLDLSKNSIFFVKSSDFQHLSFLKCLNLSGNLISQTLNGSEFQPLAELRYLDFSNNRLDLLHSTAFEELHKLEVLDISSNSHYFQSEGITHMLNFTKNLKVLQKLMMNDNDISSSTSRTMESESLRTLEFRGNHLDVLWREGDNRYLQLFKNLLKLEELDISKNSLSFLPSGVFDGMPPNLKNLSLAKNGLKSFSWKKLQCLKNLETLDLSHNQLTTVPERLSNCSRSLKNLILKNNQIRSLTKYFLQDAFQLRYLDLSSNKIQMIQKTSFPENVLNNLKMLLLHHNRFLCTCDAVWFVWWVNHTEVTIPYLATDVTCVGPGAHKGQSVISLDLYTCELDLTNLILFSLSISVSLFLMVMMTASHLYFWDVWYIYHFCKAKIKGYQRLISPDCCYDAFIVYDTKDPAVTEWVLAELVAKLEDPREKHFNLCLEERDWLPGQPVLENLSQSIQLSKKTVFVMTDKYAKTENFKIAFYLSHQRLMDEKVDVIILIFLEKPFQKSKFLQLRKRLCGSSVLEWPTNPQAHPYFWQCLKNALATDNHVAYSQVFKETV
In short: as §1

SMILES	pIC50 (human TLR8)	pIC50 (human TLR9)	pIC50 (human TLR7)
Cc1cc(-c2[nH]nc(C(=O)N[C@@H]3CCCN(C(C)C)C3)c2C(C)C)cn2ncnc12 [Example 161]	7.83	4.77	7.74
Cc1cc(-c2[nH]nc(C(=O)N(C)C3CCN(C)CC3)c2C(C)C)cn2ncnc12 [Example 6]	7.68	5.96	8.69
Cc1cc(-c2[nH]nc(-c3ncc(C4CCN(CC(C)(C)O)CC4)cn3)c2C(C)C)cn2ncnc12 [Example 390]	6.32	< 4.30	7.03
Cc1cc(-c2[nH]nc(C(=O)N[C@H]3CC[C@H](NC4CCOC(C)(C)C4)CC3)c2C(C)C)cn2ncnc12 (stereo partly drawn) [Example 115]	7.77	5.92	7.93
Cc1cc(-c2[nH]nc(C(=O)NC3CCN(CC4CCOCC4)CC3)c2C(C)C)cn2ncnc12 [Example 77]	7.67	5.49	8.69
Cc1cc(-c2[nH]nc(C(=O)N3CCN(CCC#N)CC3)c2C(C)C)cn2ncnc12 [Example 19]	7.92	5.23	8.85
COCCN1CCC(NC(=O)c2n[nH]c(-c3cc(C)c4ncnn4c3)c2C(C)C)CC1 [Example 171, 4-isopropyl-N-(1-(2-methoxyethyl)piperidin-4-yl)-5-(8-methyl-[1,2,4]triazolo[1,5-a]pyridin-6-yl)-1H-pyrazole-3-carboxamide]	8.66	6.06	9.11
Cc1cc(-c2[nH]nc(C(=O)NC3CCN(C4CCOCC4)CC3)c2CC(F)(F)F)cn2ncnc12 [Example 201]	8.38	5.03	8.18
Cc1cc(-c2[nH]nc(C(=O)NC3CCCNC3)c2C(C)C)cn2ncnc12 (stereo not drawn) [Example 67]	7.89	5.65	7.90
COc1cc(-c2[nH]nc(-c3cnc(C4CCN(C)CC4)cn3)c2C(C)C)cn2ncnc12 [Example 381]	8.04	5.23	7.95
CCC(CC)CN1CCC(NC(=O)c2n[nH]c(-c3cc(C)c4ncnn4c3)c2C(C)C)CC1 [Example 79]	8.03	5.39	8.64
Cc1c(C(=O)NC2CCN(C(C)C)CC2)n[nH]c1-c1cc(C)c2ncnn2c1 [Example 179, N-(1-isopropylpiperidin-4-yl)-4-methyl-5-(8-methyl-[1,2,4]triazolo[1,5-a]pyridin-6-yl)-1H-pyrazole-3-carboxamide]	7.87	5.14	8.01
COc1cc(-c2[nH]nc(-c3cnc(C4CCN(CC5CCOCC5)CC4)cn3)c2C(C)C)cn2ncnc12 [Example 376]	8.55	5.20	8.34
COc1cc(-c2[nH]nc(C(=O)N(C)C3CCN(C)CC3)c2C(C)C)cn2ncnc12 [Example 9]	< 5.51	5.38	< 5.51

Stronger by pIC50 (human TLR8), values ahead:

pIC50 (human TLR8)	pIC50 (human TLR9)	pIC50 (human TLR7)	SMILES
8.97	4.62	7.96	Cc1cc(-c2[nH]nc(C3CCC(NCC(F)F)CC3)c2C(C)C)cn2ncnc12 (single isomer, unassigned) [Example 279, N-(2,2-difluoroethyl)-4-(4-isopropyl-5-(8-methyl-[1,2,4]triazolo[1,5-a]pyridin-6-yl)-1H-pyrazol-3-yl)cyclohexan-1-amine]
9.10	5.36	8.56	CC(C)c1c(C(=O)NC2CCN(C(C)C)CC2)n[nH]c1-c1ccnc2[nH]ncc12 [Example 35]
8.96	4.66	8.07	Cc1cc(-c2[nH]nc(C3CCC(N4CCOCC4)CC3)c2C(C)C)cn2ncnc12 (single isomer, unassigned) [Example 290]
8.77	< 4.30	7.73	CCN(C)C1CCC(c2n[nH]c(-c3cc(C)c4ncnn4c3)c2C(C)C)CC1 (single isomer, unassigned) [Example 283]
8.87	4.64	8.37	Cc1cc(-c2[nH]nc(C(=O)N3CCNCC3)c2C(C)C)cn2ncnc12 [Example 57]
9.19	4.64	8.59	Cc1cc(-c2[nH]nc(-c3cccc(N(C)C)c3)c2C(C)C)cn2ncnc12 [Example 245]
9.03	5.42	8.72	Cc1cc(-c2[nH]nc(C(=O)N3CCN(c4ccncc4)CC3)c2C(C)C)cn2ncnc12 [Example 14]
9.14	4.47	8.46	Cc1cc(-c2[nH]nc(C3CCC(N(C)C(=O)CN(C)C)CC3)c2C(C)C)cn2ncnc12 (stereo not drawn) [Example 296, 2-(dimethylamino)-N-(4-(4-isopropyl-5-(8-methyl-[1,2,4]triazolo[1,5-a]pyridin-6-yl)-1H-pyrazol-3-yl)cyclohexyl)-N-methylacetamide]
